Consider one compound from patent US10105319B2 (Murray and Poole Enterprises Limited, priority 2013, dated 2018).

In series [1] the test system is patients with clinically stable coronary disease. Particulars: 0.5 mg/day in addition to statins; Nidorf et al., JACC 2013; cited from earlier work.
The subject of series [2] is patients with a first episode of recurrent pericarditis. To be noted: at 18 months; conventional treatment plus colchicine 0.5-1.0 mg/d for 6 months; cited from earlier work.
Series [3] relates to patients with a first episode of acute pericarditis. Particulars: at 18 months; conventional treatment plus colchicine 0.5 to 1.0 mg/day for 3 months; p=0.004; cited from earlier work.
Series [4] concerns patients with clinically stable coronary disease. The experiment in a line: LoDoCo Trial: colchicine 0.5 mg/day added to standard secondary prevention. The class given is in vivo, human. Here is the method:
This study is described in PCT/AU2013/001261 and is hereby incorporated in its entirety by reference.
All outcomes were evaluated by an experienced adjudicator blinded to the treatment allocation.
Patients with a history of bypass surgery were only eligible if they had undergone bypass surgery more than 10 years before, or had angiographic evidence of graft failure or had undergone stenting since their bypass surgery. All patients signed informed consent before randomization.
The randomization sequence was computer generated, kept concealed from the investigators at all times and was managed by a research assistant who had no involvement in the evaluation or management of study patients. […] Patients who were intolerant to therapy remained in the study, and were followed in the usual manner and included in the primary intention to treat analysis.
The drug was dispensed by their usual chemist, and if requested, patients were reimbursed for the cost of these scripts. All other treatments were continued as usual.
Patient compliance with treatment and outcome data were collected at routine follow up visits and at the time of any unplanned hospital admission. An acute coronary syndrome (ACS) was defined as either (a) Acute Myocardial Infarction (AMI), as evidenced by acute ischemic chest pain associated with a rise in serum troponin above the upper limit of normal or (b) Unstable Angina (UA), as evidenced by a recent acceleration of the patient's angina unassociated with a rise in serum troponin but associated with angiographic evidence of a change in the patient's coronary anatomy. (Unstable Angina Braunwald classification types IB and IIB). The ACS was characterized as being stent-related if there was evidence of significant in-stent stenosis or acute stent thrombosis. Out of Hospital Cardiac Arrest was defined as either a sudden death as evidenced on the patient's death certificate, or a non-fatal out of hospital cardiac arrest, defined as a recovery from sudden collapse associated with documented asystole, ventricular tachycardia or ventricular fibrillation. Noncardioembolic ischemic stroke was defined as CT or MRI proven ischemic stroke adjudged by the treating neurologist as not being due to atrial fibrillation or intracranial hemorrhage.
The primary efficacy outcome was the composite, ACS, fatal or non-fatal out of hospital cardiac arrest or non-cardio-embolic ischemic stroke. Secondary outcomes were (a) individual components of the primary outcome, and (b) the components of ACS unrelated to stent disease.
The pre-specified study duration was a minimum follow up of two years in all patients. Accordingly the study was closed on May 31, 2012. During May, all living patients were contacted by phone to collect compliance and outcome data from the last date of follow-up.
Summary statistics, including mean and standard deviation were calculated for all baseline characteristics by treatment arm. All time to event outcomes were calculated in days by subtracting the date of randomization from either: (1) the date of event or death; or (2) the trial termination date for those patients not experiencing the defined event. As pre-specified, the primary efficacy analysis was based on the intention-to-treat principle. The intention-to-treat analysis included all randomized subjects and all events during the time from randomization to the trial termination. Trial termination date was fixed as May 31, 2012. A secondary pre-specified on-treatment analysis was also performed, based on patients who were both tolerant and compliant to therapy beyond the first month of randomization.
The time-to-first-event for all outcomes is presented using a Kaplan-Meier plot. […] The secondary outcomes were analysed similarly.

Each structure is given as a SMILES string.

Consider `COc1cc2c(c(OC)c1OC)-c1ccc(OC)c(=O)cc1[C@@H](NC(C)=O)CC2` [colchicine, N[5,6,7,9-tetrahydro-1,2,3,10-tetratmethoxy 9-oxobenzo[a]heptalen-7-yl],(S)-acetamide], for which the “prevention of cardiovascular events” value in series [1] is “appeared effective”. Besides, in series [2], the “recurrence rate (actuarial rate)” value is on record as 24.0%. Further, in series [3], the recurrence rate is given as 10.7%. Moreover, the “patients with AMI (ACS unrelated to stent disease)” value in series [4] (0.5 mg/day, 4/282) was found to be 1.4%. In series [4] (0.5 mg/day, 5/282), the “patients with UA (ACS unrelated to stent disease)” value is recorded as 1.8%. For the same compound, the “patients with an ACS unrelated to stent disease” value in series [4] (0.5 mg/day, 9/282) was found to be 3.2%. Further, the “patients presenting with an ACS” value in series [4] (0.5 mg/day, 13/282) was determined as 4.6%. For the same compound, in series [4] (0.5 mg/day, intention to treat, 15/282, median follow up 36 months), the “patients with primary outcome (ACS, out of hospital cardiac arrest or non-cardio-embolic ischemic stroke)” value turned out to be 5.3%. The “patients reporting early intolerance due to gastrointestinal side effects” value in series [4] (32 of 282 randomized to treatment) was 11%. Further, the patients who died in series [4] (colchicine group, all of non-cardiac causes, 10 in control group) was determined as 4 patients. For the same compound, the “out of hospital cardiac arrest and non-cardio-embolic ischemic stroke” value in series [4] (treatment group vs control) is on record as “infrequent but were also reduced”.
